Measured values reported in PubChem BioAssay (NCI).
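Following 48 hours of exposure in 96-well plates, responses at five concentrations were used to interpolate endpoints linearly. GI50 marks 50% less growth. TGI marks complete inhibition of growth.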

Key:
Assay in all cases: NCI tumour cell line growth inhibition, 48 h
786-0 renal = test system: 786-0 renal
A498 renal = test system: A498 renal
A549 NSCLC = test system: A549 NSCLC
ACHN renal = test system: ACHN renal
BT-549 breast = test system: BT-549 breast
CAKI-1 renal = test system: CAKI-1 renal
CCRF-CEM leukemia = test system: CCRF-CEM leukemia
COLO 205 colon = test system: COLO 205 colon
DU-145 prostate = test system: DU-145 prostate
EKVX NSCLC = test system: EKVX NSCLC
HCC-2998 colon = test system: HCC-2998 colon
HCT-116 colon = test system: HCT-116 colon
HCT-15 colon = test system: HCT-15 colon
HL-60(TB) leukemia = test system: HL-60(TB) leukemia
HOP-62 NSCLC = test system: HOP-62 NSCLC
HOP-92 NSCLC = test system: HOP-92 NSCLC
HS 578T breast = test system: HS 578T breast
HT29 colon = test system: HT29 colon
IGROV1 ovarian = test system: IGROV1 ovarian
K-562 leukemia = test system: K-562 leukemia
KM12 colon = test system: KM12 colon
LOX IMVI melanoma = test system: LOX IMVI melanoma
M14 melanoma = test system: M14 melanoma
MALME-3M melanoma = test system: MALME-3M melanoma
MCF7 breast = test system: MCF7 breast
MDA-MB-231 breast = test system: MDA-MB-231 breast
MDA-MB-435 = test system: MDA-MB-435
MOLT-4 leukemia = test system: MOLT-4 leukemia
NCI-H226 lung = test system: NCI-H226 lung
NCI-H460 lung = test system: NCI-H460 lung
NCI-H522 lung = test system: NCI-H522 lung
NCI/ADR-RES ovarian = test system: NCI/ADR-RES ovarian
OVCAR-3 ovarian = test system: OVCAR-3 ovarian
OVCAR-4 ovarian = test system: OVCAR-4 ovarian
OVCAR-5 ovarian = test system: OVCAR-5 ovarian
OVCAR-8 ovarian = test system: OVCAR-8 ovarian
PC-3 prostate = test system: PC-3 prostate
RPMI-8226 leukemia = test system: RPMI-8226 leukemia
RXF 393 renal = test system: RXF 393 renal
SF-268 CNS = test system: SF-268 CNS
SF-295 CNS = test system: SF-295 CNS
SF-539 CNS = test system: SF-539 CNS
SK-MEL-2 melanoma = test system: SK-MEL-2 melanoma
SK-MEL-28 melanoma = test system: SK-MEL-28 melanoma
SK-MEL-5 melanoma = test system: SK-MEL-5 melanoma
SK-OV-3 ovarian = test system: SK-OV-3 ovarian
SN12C renal = test system: SN12C renal
SNB-19 CNS = test system: SNB-19 CNS
SNB-75 CNS = test system: SNB-75 CNS
SR leukemia = test system: SR leukemia
SW-620 colon = test system: SW-620 colon
T-47D breast = test system: T-47D breast
TK-10 renal = test system: TK-10 renal
U251 CNS = test system: U251 CNS
UACC-257 melanoma = test system: UACC-257 melanoma
UACC-62 melanoma = test system: UACC-62 melanoma
UO-31 renal = test system: UO-31 renal

For `CCNC(=O)N1CCc2cc(OC)c(OCCc3ccc(OC)c(N)c3)cc2C1c1ccc(C)cc1C` (stereo not drawn), the GI50 (786-0 renal) was 165 nM, the TGI (786-0 renal) was 92000 nM and the GI50 (A498 renal) was 2780 nM. The GI50 (A549 NSCLC) was 151 nM, the TGI (A549 NSCLC) was > 100000 nM and the GI50 (ACHN renal) was 121 nM. The TGI (ACHN renal) was > 60400 nM, the GI50 (BT-549 breast) was 349 nM and the TGI (BT-549 breast) was 3460 nM. For the same compound, the GI50 (CAKI-1 renal) was 161 nM, the TGI (CAKI-1 renal) was 31400 nM and the GI50 (CCRF-CEM leukemia) was 58.6 nM. The TGI (CCRF-CEM leukemia) was > 76600 nM, the GI50 (COLO 205 colon) was 318 nM and the TGI (COLO 205 colon) was 2820 nM. For the same compound, the GI50 (DU-145 prostate) was 208 nM, the TGI (DU-145 prostate) was > 40800 nM and the GI50 (EKVX NSCLC) was 1510 nM. For the same compound, the TGI (EKVX NSCLC) was > 100000 nM, the GI50 (HCC-2998 colon) was 344 nM and the TGI (HCC-2998 colon) was 23300 nM. The GI50 (HCT-116 colon) was 31.1 nM, the TGI (HCT-116 colon) was 25800 nM and the GI50 (HCT-15 colon) was < 26.3 nM. For the same compound, the TGI (HCT-15 colon) was > 100000 nM, the GI50 (HL-60(TB) leukemia) was 100 nM and the TGI (HL-60(TB) leukemia) was 1820 nM. For the same compound, the GI50 (HOP-62 NSCLC) was 226 nM, the TGI (HOP-62 NSCLC) was > 46400 nM and the GI50 (HOP-92 NSCLC) was 4810 nM. The TGI (HOP-92 NSCLC) was 56700 nM, the GI50 (HS 578T breast) was 273 nM and the TGI (HS 578T breast) was 23800 nM. The GI50 (HT29 colon) was 261 nM, the TGI (HT29 colon) was 1770 nM and the GI50 (IGROV1 ovarian) was 132 nM. The TGI (IGROV1 ovarian) was > 100000 nM, the GI50 (K-562 leukemia) was 29.1 nM and the TGI (K-562 leukemia) was > 100000 nM. The GI50 (KM12 colon) was 493 nM, the TGI (KM12 colon) was 65900 nM and the GI50 (LOX IMVI melanoma) was 36.5 nM. The TGI (LOX IMVI melanoma) was 1740 nM, the GI50 (M14 melanoma) was 205 nM and the TGI (M14 melanoma) was 15200 nM. It also gave a GI50 (MALME-3M melanoma) of 624 nM, a TGI (MALME-3M melanoma) of 76100 nM and a GI50 (MCF7 breast) of 63.4 nM. The TGI (MCF7 breast) was > 83500 nM, the GI50 (MDA-MB-231 breast) was 134 nM and the TGI (MDA-MB-231 breast) was > 56300 nM. It also gave a GI50 (MDA-MB-435) of 139 nM, a TGI (MDA-MB-435) of 496 nM and a GI50 (MOLT-4 leukemia) of 38.4 nM. The TGI (MOLT-4 leukemia) was > 100000 nM, the GI50 (NCI-H226 lung) was 643 nM and the TGI (NCI-H226 lung) was 14600 nM. It also gave a GI50 (NCI-H460 lung) of 30.9 nM, a TGI (NCI-H460 lung) of 1890 nM and a GI50 (NCI-H522 lung) of 98.4 nM. For the same compound, the TGI (NCI-H522 lung) was 440 nM, the GI50 (NCI/ADR-RES ovarian) was 229 nM and the TGI (NCI/ADR-RES ovarian) was 2460 nM. The GI50 (OVCAR-3 ovarian) was 150 nM, the TGI (OVCAR-3 ovarian) was 22200 nM and the GI50 (OVCAR-4 ovarian) was 1470 nM. For the same compound, the TGI (OVCAR-4 ovarian) was > 100000 nM, the GI50 (OVCAR-5 ovarian) was 538 nM and the TGI (OVCAR-5 ovarian) was > 100000 nM. It also gave a GI50 (OVCAR-8 ovarian) of 105 nM, a TGI (OVCAR-8 ovarian) of 34300 nM and a GI50 (PC-3 prostate) of 54.8 nM. The TGI (PC-3 prostate) was > 100000 nM, the GI50 (RPMI-8226 leukemia) was 89.9 nM and the TGI (RPMI-8226 leukemia) was 1600 nM. It also gave a GI50 (RXF 393 renal) of 234 nM, a TGI (RXF 393 renal) of 5010 nM and a GI50 (SF-268 CNS) of 278 nM. The TGI (SF-268 CNS) was > 95300 nM, the GI50 (SF-295 CNS) was 164 nM and the TGI (SF-295 CNS) was 11100 nM. For the same compound, the GI50 (SF-539 CNS) was 77.1 nM, the TGI (SF-539 CNS) was 1740 nM and the GI50 (SK-MEL-2 melanoma) was 996 nM. For the same compound, the TGI (SK-MEL-2 melanoma) was 14400 nM, the GI50 (SK-MEL-28 melanoma) was 283 nM and the TGI (SK-MEL-28 melanoma) was 23300 nM. It also gave a GI50 (SK-MEL-5 melanoma) of 106 nM, a TGI (SK-MEL-5 melanoma) of 1700 nM and a GI50 (SK-OV-3 ovarian) of 533 nM. The TGI (SK-OV-3 ovarian) was > 90000 nM, the GI50 (SN12C renal) was 294 nM and the TGI (SN12C renal) was 22200 nM. The GI50 (SNB-19 CNS) was 191 nM, the TGI (SNB-19 CNS) was > 100000 nM and the GI50 (SNB-75 CNS) was 184 nM. For the same compound, the TGI (SNB-75 CNS) was 4270 nM, the GI50 (SR leukemia) was 27 nM and the TGI (SR leukemia) was 6240 nM. The GI50 (SW-620 colon) was 106 nM, the TGI (SW-620 colon) was > 100000 nM and the GI50 (T-47D breast) was 280 nM. The TGI (T-47D breast) was 92800 nM, the GI50 (TK-10 renal) was 2140 nM and the TGI (TK-10 renal) was > 100000 nM. For the same compound, the GI50 (U251 CNS) was 74.3 nM, the TGI (U251 CNS) was 24600 nM and the GI50 (UACC-257 melanoma) was 533 nM. For the same compound, the TGI (UACC-257 melanoma) was > 82000 nM, the GI50 (UACC-62 melanoma) was 105 nM and the TGI (UACC-62 melanoma) was 2750 nM. For the same compound, the GI50 (UO-31 renal) was 238 nM and the TGI (UO-31 renal) was > 95000 nM.
